Measured values as given in US12016933B2, “Method for stimulating axonal regeneration” (The Hong Kong University of Science and Technology, priority 2020, dated 2024).

How the values were obtained:
[1] = system: DRG neurons; assay: Axon elongation of cultured DRG neurons treated with inhibitor compounds; type: cell-based, mouse; settings: for axon regrowth / axon regeneration in DRG neuron culture: one day after compound treatment, A-922500 500 nM, pradigastat 1 μM, PF combination 10 μM each; for axon elongation in dissociated primary DRG neuron culture: Atglistatin 10 μM, KLH-45 10 μM (figure legend), vs DMSO vehicle
Method: DRG primary culture and replating were performed as previously described. In brief, for primary culture, L4-L6 DRGs from 7-8 weeks wild-type mice of both genders were dissected and then digested in 0.5% collagenase for 1.5 h. After termination of digestion, DRGs were pipetted 20-30 times in a tube for complete dissociation. Neurobasal-A with B27 as a supplement was used as a medium for DRG culture. Virus was added at 1 day in vitro (DIV1) for genetic manipulation. […]
For replating DRG neuron culture, at DIV9-11 of primary DRG culture, cells were gently pipetted on culture dishes. Cells were flushed by 20-30 rounds of pipetting in each well of a 6-well plate. After all the cells were resuspended, they were replated onto a 24-well plate. Fixation and staining were performed 24 h after replating. Tuj1 staining was used to visualize axons and cell bodies of neurons. The lengths of the longest neurites from each DRG neuron were measured manually by NeuronJ in ImageJ. Average lengths of 10-20 neurites from 3 individual mice were used in each group.
In the final step of the glycerol phosphate pathway DGAT enzymes catalyze DGs into TGs. To assess the effect of blocking the DGAT enzyme, commercially available, DGAT1 inhibitors were used in culture. A-922500 (500 nM) and pradigastat (1 μM) were individually tested in a culture medium of DRG neurons. A combination of PF-06424439 (10 μM) and PF-046201101 (10 μM) was also tested in a culture medium of DRG neurons. […] Then, a KD experiment was performed by transfecting Dgat1 shRNA (shDgat1) targeting SEQ ID NO: 8, Dgat2 shRNA (shDgat2) targeting SEQ ID NO: 9 into DRG neurons. […] Because axotomy increases Lipin1 expression in RGCs, a study was conducted to determine whether DGAT enzymes were also regulated by axonal injury.

[2] = system: adult DRG neurons; assay: Axon elongation of replated adult DRG neurons after shRNA/AAV treatment (Tuj1 staining, longest neurite); type: cell-based, mouse; settings: for effect on axon regrowth / axon growth of DRG neurons: shRNA in WT DRG neurons vs control shRNA
[3] = system: cortical neurons; assay: Total TG and PC levels in cortical neurons by enzymatic hydrolysis assays; type: cell-based, mouse; settings: lipid hydrolysis assay, DGAT1 or DGAT2 depletion
Method: (§1) Cortical neurons were cultured as previously described. In short, the cortex from E18 C57/B6 mice of both genders was dissected and digested in 0.5 mg/mL papain for 30 min. Then, 100 μL fetal bovine serum (HyClone) was added to inactivate papain. The cells were then placed into Neurobasal medium (Gibco), supplemented with B27 (Gibco) and 1% penicillin-streptomycin (10,000 U/mL; Gibco). AraC (100 nM; Sigma) was used to inhibit glial proliferation in DIV1-DIV3. After 10 days of culture with AAV-scramble, AAV-shLipin1, AAV-shDgat1 or AAV-shDgat2, cells were harvested, and then TG or PC levels were measured according to the manufacturer's protocol (ab65336 and ab83377).
Because UPLC-MS might not identify all lipid molecular species, the total TG and PC levels were further measured by performing enzymatic hydrolysis assays. TG levels were decreased by 40% after Lipin1 depletion (FIG. 3E). […] Because injury triggers Lipin1 elevation in RGCs, the data on lipid changes after Lipin1 KD indicate that axotomy may program lipid metabolism to increase triglyceride and decrease PL production. This injury-triggered bias in lipid synthesis may contribute to the declined axon growth in CNS neurons. By depleting Lipin1, injured neurons may redirect two arms of the branch and shift lipid storage to membrane lipid production for axon regrowth.

[4] = system: cortical neurons; assay: Lipid profile of cultured cortical neurons by UPLC-MS; type: cell-based, mouse
Method: as §1
Lipid extraction was performed using the Folch method. Cortical neurons were lysed in a 2:1 chloroform:methanol mixture. After the upper phase was siphoned, the solvent was dried by line blowing with nitrogen. Lipid extracts were analyzed using a Synapt G2 HDMS mass spectrometer coupled with an ACQUITY UPLC system (Waters, Milford, USA). The UPLC separation was carried out using a Charge Surface Hybrid column (particle size: 1.7 μm; length: 100 mm; i.d.: 2.1 mm). The mobile phase consisted of solvent A (0.1% formic acid in water, v/v) and solvent B (0.1% formic acid in acetonitrile, v/v), each with 10 mM ammonium acetate. The elution gradient conditions were as follows: 0 min, 40% B; 2 min, 43% B; 2-2.1 min, 50% B; 12 min, 54% B; 12.1 min, 70% B; 12.1-18 min, 99% B. The flow rate was 0.2 mL min^−1, and the injection volume was 2 μL. A two minutes post-run time was set to fully equilibrate the column. Column temperature and sample chamber temperature were set to 55° C. and 6° C., respectively. […]
Because PAP activity is critical for Lipin1-dependent axon growth, it was hypothesized that Lipin1 may control axon regrowth by regulating glycerolipid synthesis in neurons. […] Glycerolipid levels were directly measured after eliminating glial cells by adding cytosine arabinoside (AraC) to the culture. […] Lipid extraction of cortical neurons was analyzed by ultra-performance liquid chromatography-mass spectrometry (UPLC-MS) system. […]

[5] = system: DRG neurons; assay: Lipid droplet formation in cultured DRG neurons (BODIPY staining); type: cell-based, mouse; settings: cultured adult DRG neurons, three days, vs DMSO vehicle
Method: DRG primary culture and replating were performed as previously described. In brief, for primary culture, L4-L6 DRGs from 7-8 weeks wild-type mice of both genders were dissected and then digested in 0.5% collagenase for 1.5 h. After termination of digestion, DRGs were pipetted 20-30 times in a tube for complete dissociation. Neurobasal-A with B27 as a supplement was used as a medium for DRG culture. Virus was added at 1 day in vitro (DIV1) for genetic manipulation. Atglistatin (10 μM), KLH-45 (1 μM), paradigastat (1 μM) or A-922500 (500 nM) treatment was used for ATGL, DDHD2 or DGAT1 inhibition.
For BODIPY staining on cultured DRG neurons, cells were first fixed in 4% PFA for 10 min and permeabilized with 0.1% Triton X-100 in 4% NGS. After cells were blocked, the Tuj1 antibody was applied in blocking buffer and incubated at 4° C. overnight. Coverslips were then washed three times with PBS and incubated with secondary antibodies at room temperature for 2 h. Cells were finally incubated with 200 nM BODIPY (Sigma) in blocking buffer for 30 min before mounting.
Experiments were performed to manipulate TG lipases in vitro. In cultured adult DRG neurons with vehicle treatment, lipid droplets were barely detected (FIG. 4B), consistent with the notion that neurons constantly turn over TGs with minimum storage. […] Then, the function of TG lipases was examined in axon regeneration in vivo. […]

[6] = system: sensory axons in the sciatic nerve; assay: Sciatic nerve crush, sensory axon regeneration (SCG10 staining); type: in vivo, mouse; settings: WT mice, i.p. KLH-45 30 mg/kg/day, Atglistatin 40 mg/kg/day, 5 days before and 2 days after injury; two days regrowth
Method: KLH-45 (30 mg/kg/day) or Atglistatin (40 mg/kg/day) were delivered by intraperitoneal injection for 5 consecutive days before injury and 2 days after injury. The same dosage of DMSO injection was used as a control treatment. Sciatic nerve injury was performed as previously described. Briefly, after an incision was made on the skin at the middle thigh level, muscle was gently dissected to expose the sciatic nerve. Then, the sciatic nerve was crushed for 10 s by forceps (Dumont #2; Fine Science Tools). For the sham group, the sciatic nerve was only exposed but not crushed.
Sciatic nerve sections with SCG10 staining were used to quantify the regeneration index. A column with a width of 50 pixels was drawn at different distances from the lesion center, and the average intensity of SCG10 staining was measured using ImageJ. The distance between the lesion center and the column with half the intensity of the lesion center was considered as the regeneration index.
Consistently, Ddhd2 KD in isolated DRG neurons suppressed axon elongation in culture, and as a positive control Lipin1 KD increased the axon length. Then, vehicle KLH-45, or KLH-45 combined with Atglistatin was systematically administered into WT mice. The sciatic nerve was then crushed, and the sensory axons were allowed to regrow for two days before examination. […]

[7] = after Dgat1 KD, compared to the control shRNA group

O=C(O)C[C@H]1CC[C@H](c2ccc(-c3ccc(Nc4ccc(C(F)(F)F)nc4)cn3)cc2)CC1 [pradigastat]
axon regrowth / axon regeneration in DRG neuron culture [1]: demonstrated axon regrowth

O=C(Nc1ccccc1)Nc1ccc(-c2ccc(C(=O)[C@@H]3CCC[C@H]3C(=O)O)cc2)cc1 [A-922500]
axon regrowth / axon regeneration in DRG neuron culture [1]: demonstrated axon regrowth

shDgat2: Dgat2 shRNA targeting SEQ ID NO: 9 (GCTACTTCCGAGACTACTTT; target site or template, no part of the molecule)
effect on axon regrowth / axon growth of DRG neurons [2]: significantly boosted axon growth
PC content [3]: increased
TG level in neurons [3]: decreased the TG level

shDgat1: Dgat1 shRNA targeting SEQ ID NO: 8 (GCCCTTCAAGGATATGGACT; the letters are possibly those of the target site)
effect on axon regrowth / axon growth of DRG neurons [2]: significantly boosted axon growth
identified TG species levels ([4]; after Dgat1 KD vs control shRNA): decreased
PC(29:1) increase [4, 7]: more than eightfold
PC(36:2) increase [4, 7]: more than eightfold
PC content [3]: increased
TG level in neurons [3]: decreased the TG level

CN(C)C(=O)Nc1cccc(-c2ccc(N(C)C)cc2)c1 [Atglistatin]
axon elongation in dissociated primary DRG neuron culture [1]: significantly inhibited axon elongation
TG storage in neurons (lipid droplet formation) [5]: dramatically increased TG storage

Lipin1 shRNA: short hairpin RNA against Lipin1, plasmid transfected into DRG neurons (CGGAACTCTGTAGACAGAAT)
axon elongation enhanced by ([2]; shRNA plasmid transfected for three days, replated, fixed 24 h after replating, vs control shRNA): 20%

O=C(N(CCc1ccccc1)C1CCCCC1)n1ncc(-c2ccc(OC(F)(F)F)cc2)n1 [KLH-45]
spontaneous sensory axon regeneration after sciatic nerve crush [6]: modestly inhibited
axon elongation in dissociated primary DRG neuron culture [1]: significantly inhibited axon elongation
TG storage in neurons (lipid droplet formation) [5]: dramatically increased TG storage
